Reference: ChEMBL document CHEMBL1144194, “Initial SAR studies on apamin-displacing 2-aminothiazole blockers of calcium-activated small conductance potassium channels” (Bioorg Med Chem Lett, 2008)
The source made the active and inactive calls. No cut-off for these calls is given here. Peptide text beside a SMILES is read from it.

How the values were obtained:
[1] = biological target: T1, Small conductance calcium-activated potassium channel protein 3 (Homo sapiens, UniProt Q9UGI6); assay: Inhibition of Kca2.3 channel expressed in HEK293 cells at 30 uM by thallium flux assay; assay type: cell-based
T1 sequence (Q9UGI6 whole entry): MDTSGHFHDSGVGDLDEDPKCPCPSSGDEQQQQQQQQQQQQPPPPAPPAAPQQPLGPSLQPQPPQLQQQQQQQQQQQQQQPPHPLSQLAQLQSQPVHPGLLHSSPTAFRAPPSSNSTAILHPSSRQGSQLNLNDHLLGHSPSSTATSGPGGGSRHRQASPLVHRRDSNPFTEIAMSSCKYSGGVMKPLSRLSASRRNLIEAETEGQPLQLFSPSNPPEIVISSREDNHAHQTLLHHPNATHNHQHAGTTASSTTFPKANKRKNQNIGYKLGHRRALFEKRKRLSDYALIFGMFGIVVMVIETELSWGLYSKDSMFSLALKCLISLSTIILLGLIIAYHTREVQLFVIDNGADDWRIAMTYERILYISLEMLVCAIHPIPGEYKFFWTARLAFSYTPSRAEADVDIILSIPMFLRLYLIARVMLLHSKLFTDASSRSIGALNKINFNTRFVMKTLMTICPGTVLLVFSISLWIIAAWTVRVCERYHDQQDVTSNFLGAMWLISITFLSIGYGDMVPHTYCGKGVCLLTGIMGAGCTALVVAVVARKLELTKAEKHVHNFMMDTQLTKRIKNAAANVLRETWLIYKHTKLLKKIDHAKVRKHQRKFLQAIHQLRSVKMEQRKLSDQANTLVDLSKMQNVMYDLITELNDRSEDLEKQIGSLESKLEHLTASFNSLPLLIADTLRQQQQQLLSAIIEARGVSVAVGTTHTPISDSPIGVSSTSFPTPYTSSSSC

[2] = biological target: T1, Small conductance calcium-activated potassium channel protein 3; assay: Inhibition of Kca2.3 channel expressed in HEK293 cells by thallium flux assay; assay type: cell-based
[3] = biological target: T1, Small conductance calcium-activated potassium channel protein 3; assay: Inhibition of Kca2.3 channel expressed in HEK293 cells by electrophysiology assay; assay type: cell-based
[4] = biological target: T1, Small conductance calcium-activated potassium channel protein 3; assay: Displacement of [125I]apamin from Kca2.3 channel expressed in HEK293 cells by scintillation proximity assay; assay type: cell-based
[5] = biological target: Small conductance calcium-activated potassium channel protein 1 (Homo sapiens, UniProt Q92952); assay: Inhibition of Kca2.1 channel expressed in HEK293 cells by thallium flux assay; assay type: cell-based
Small conductance calcium-activated potassium channel protein 1, sequence (Q92952 whole entry): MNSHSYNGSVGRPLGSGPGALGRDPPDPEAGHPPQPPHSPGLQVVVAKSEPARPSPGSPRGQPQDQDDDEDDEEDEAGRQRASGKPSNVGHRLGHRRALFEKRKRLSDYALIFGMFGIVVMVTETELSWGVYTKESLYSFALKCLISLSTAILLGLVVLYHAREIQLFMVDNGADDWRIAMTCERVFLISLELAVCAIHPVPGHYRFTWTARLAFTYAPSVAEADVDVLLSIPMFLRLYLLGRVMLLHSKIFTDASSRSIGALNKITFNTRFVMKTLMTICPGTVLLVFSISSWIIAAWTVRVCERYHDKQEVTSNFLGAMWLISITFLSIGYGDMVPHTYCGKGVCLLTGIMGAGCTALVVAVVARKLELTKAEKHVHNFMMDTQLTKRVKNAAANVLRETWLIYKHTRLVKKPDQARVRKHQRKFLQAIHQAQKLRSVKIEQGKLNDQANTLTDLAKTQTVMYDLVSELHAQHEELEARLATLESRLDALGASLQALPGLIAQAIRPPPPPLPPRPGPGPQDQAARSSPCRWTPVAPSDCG

[6] = biological target: T2, Small conductance calcium-activated potassium channel protein 2 (Homo sapiens, UniProt Q9H2S1); assay: Inhibition of Kca2.2 channel expressed in HEK293 cells by thallium flux assay; assay type: cell-based
T2 sequence (Q9H2S1 whole entry): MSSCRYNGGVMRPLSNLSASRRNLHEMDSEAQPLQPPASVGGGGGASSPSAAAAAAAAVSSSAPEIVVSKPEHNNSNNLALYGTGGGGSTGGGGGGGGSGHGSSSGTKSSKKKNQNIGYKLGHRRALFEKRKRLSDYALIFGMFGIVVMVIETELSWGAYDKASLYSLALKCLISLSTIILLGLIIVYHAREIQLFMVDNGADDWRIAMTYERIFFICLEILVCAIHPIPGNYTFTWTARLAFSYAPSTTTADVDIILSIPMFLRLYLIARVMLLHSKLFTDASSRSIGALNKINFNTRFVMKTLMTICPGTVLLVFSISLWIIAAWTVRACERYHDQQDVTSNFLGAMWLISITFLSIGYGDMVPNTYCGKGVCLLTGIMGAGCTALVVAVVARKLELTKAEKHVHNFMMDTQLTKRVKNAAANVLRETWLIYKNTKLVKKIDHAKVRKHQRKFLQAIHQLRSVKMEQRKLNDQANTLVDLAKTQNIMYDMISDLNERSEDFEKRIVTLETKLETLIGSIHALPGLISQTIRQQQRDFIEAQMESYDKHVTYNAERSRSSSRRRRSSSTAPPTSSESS

[7] = biological target: Intermediate conductance calcium-activated potassium channel protein 4 (Homo sapiens) (UniProt O15554); assay: Inhibition of Kca3.1 channel expressed in HEK293 cells by thallium flux assay; assay type: cell-based
Intermediate conductance calcium-activated potassium channel protein 4 (Homo sapiens), sequence (O15554 whole entry): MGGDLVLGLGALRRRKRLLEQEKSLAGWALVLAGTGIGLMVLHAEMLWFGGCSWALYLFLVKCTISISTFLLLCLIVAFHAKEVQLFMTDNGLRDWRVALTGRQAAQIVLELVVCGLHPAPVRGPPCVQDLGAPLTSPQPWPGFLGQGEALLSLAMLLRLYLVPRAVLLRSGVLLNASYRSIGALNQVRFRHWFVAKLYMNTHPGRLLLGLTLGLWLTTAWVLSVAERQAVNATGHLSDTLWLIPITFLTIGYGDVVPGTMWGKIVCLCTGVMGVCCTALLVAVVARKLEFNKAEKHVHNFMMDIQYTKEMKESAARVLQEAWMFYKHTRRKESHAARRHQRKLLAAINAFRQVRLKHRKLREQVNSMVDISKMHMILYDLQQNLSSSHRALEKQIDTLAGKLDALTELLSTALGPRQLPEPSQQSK

[8] = biological target: T2, Small conductance calcium-activated potassium channel protein 2; assay: Displacement of [125I]apamin from Kca2.2 channel expressed in HEK293 cells; assay type: cell-based
[9] = biological target: Intermediate conductance calcium-activated potassium channel protein 4 (Homo sapiens) (UniProt O15554); assay: Inhibition of Kca3.1 channel expressed in HEK293 cells at 30 uM by thallium flux assay; assay type: cell-based
[10] = Inhibition of Kca channel
[11] = Inhibition of guinea-pig Kca channel; set-up: species or system Cavia porcellus

Question: What does the source list for `c1ccc(Nc2nc(-c3ccccn3)cs2)nc1`?
Answer: inhibition [1]: 89%; IC50 [2]: 543 nM; IC50 [3]: 290 nM; IC50 [4]: 25 nM; IC50 [5]: 43 nM; IC50 [6]: 123 nM; Activity [7]: inactive; IC50 [8]: 543 nM

Question: Which inhibition [1] does the source give for `Cc1ccnc(Nc2nc(-c3ccccn3)cs2)c1` here?
Answer: Its inhibition is 98%.

Question: What about the inhibition [9] of the same molecule?
Answer: Its inhibition is 10%.

Question: What does the source list for `c1ccc(Nc2nc(-c3ccccc3)cs2)cc1`?
Answer: inhibition [1]: 18%; IC50 [2]: > 30000 nM

Question: With `c1ccc(Nc2nc(-c3ccccn3)cs2)cc1` as the molecule, how does the inhibition [1] read?
Answer: Its inhibition is 9%.

Question: Which IC50 [10] does the source give for `c1ccc2c(c1)CCC[C@H]2Nc1nc2ccccc2[nH]1` here?
Answer: The IC50 was 500 nM.

Question: With `Cc1cc(N)c2ccccc2[n+]1CCCCCCCCCC[n+]1c(C)cc(N)c2ccccc21` [DEQUALINIUM CHLORIDE] as the molecule, how does the IC50 [2] read?
Answer: Its IC50 is 1300 nM.

Question: What about the IC50 [3] of the same molecule?
Answer: The IC50 was 2000 nM.

Question: What about the IC50 [10] of the same molecule?
Answer: The IC50 was 1000 nM.

Question: What does the source list for `c1ccc(Nc2nc(-c3cccnc3)cs2)nc1`?
Answer: inhibition [1]: 14%; IC50 [2]: > 30000 nM

Question: For `c1ccc(-c2csc(Nc3cccnc3)n2)nc1`, which inhibition [1] is on record?
Answer: The inhibition was 45%.

Question: Which IC50 [10] does the source give for `c1cc2cc(c1)C[n+]1ccc(c3ccccc31)NCc1ccc(cc1)CNc1cc[n+](c3ccccc13)C2` here?
Answer: Its IC50 is 3 nM.

Question: Which results are given for `c1ccc(-c2csc(-c3ccccn3)n2)nc1`?
Answer: inhibition [1]: 16%; IC50 [2]: > 30000 nM

Question: What does the source list for `c1ccc(-c2csc(Nc3ccncc3)n2)nc1`?
Answer: inhibition [1]: 14%; IC50 [2]: > 30000 nM

Question: Which IC50 [2] does the source give for `c1ccc(Nc2nc(-c3ccncc3)cs2)nc1` here?
Answer: Its IC50 is > 30000 nM.

Question: With `c1ccc(Cc2nc(-c3ccccn3)cs2)nc1` as the molecule, how does the inhibition [1] read?
Answer: The inhibition was 15%.

Question: And the IC50 [2]?
Answer: The IC50 was > 30000 nM.

Question: For `Ic1ccc(Nc2nc(-c3ccccn3)cs2)nc1`, which inhibition [1] is on record?
Answer: Its inhibition is 29%.

Question: What about the IC50 [2] of the same molecule?
Answer: The IC50 was > 30000 nM.

Question: With `FC(F)(F)c1cnc(Nc2nc(-c3ccccn3)cs2)c(Cl)c1` as the molecule, how does the inhibition [1] read?
Answer: Its inhibition is 8%.

Question: And the IC50 [2]?
Answer: Its IC50 is > 30000 nM.

Question: Which results are given for `c1ccc(-c2csc(Nc3ncccn3)n2)nc1`?
Answer: inhibition [1]: 24%; IC50 [2]: > 30000 nM

Question: Which Ki [11] does the source give for `CC[C@H](C)[C@H](NC(=O)[C@H](CS)NC(=O)[C@H](CCCCN)NC(=O)CNC(=O)[C@H](CC(C)C)NC(=O)[C@H](CC(C)C)NC(=O)CNC(=O)[C@H](CC(C)C)NC(=O)[C@H](CO)NC(=O)[C@H](CCCNC(=N)N)NC(=O)[C@H](CS)NC(=O)[C@H](CO)NC(=O)[C@H](CC(C)C)NC(=O)[C@H](CCC(N)=O)NC(=O)[C@H](CS)NC(=O)[C@H](CCSC)NC(=O)[C@H](CCCNC(=N)N)NC(=O)[C@H](CC(C)C)NC(=O)[C@H](CC(N)=O)NC(=O)[C@H](CS)NC(=O)[C@H](Cc1ccccc1)NC(=O)[C@H](C)N)C(=O)NCC(=O)N[C@@H](CC(=O)O)C(=O)N[C@@H](CCCCN)C(=O)N[C@@H](CS)C(=O)N[C@@H](CCC(=O)O)C(=O)N[C@@H](CS)C(=O)N[C@H](C(=O)N[C@@H](CCCCN)C(=O)N[C@@H](Cc1cnc[nH]1)C(=O)O)C(C)C` [Scyllatoxin] (H-AFCNLRMCQLSCRSLGLLGKCIGDKCECVKH-OH) here?
Answer: The Ki was 0.075 nM.
